Assay results as given in patent US20230085307A1, “PYRIDAZINONE COMPOUND AND HERBICIDE” (NISSAN CHEMICAL CORPORATION, priority 2019, published 2023).

tested on: persian speedwell; experiment: Test Example 5: herbicidal effect by foliage application, plastic box (Table 20, symbol R); format: in vivo, Persian speedwell (Veronica persica); conditions: foliage application, 320 g/ha, three weeks after application
Method in brief: (§1)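 Sow seeds spot-wise in sterilized diluvial soil; cover with ~1.5 cm soil. Grow 14 days in greenhouse, 25° C. to 30° C. Spray foliage with emulsion diluted to predetermined amount. Rate effect after 3 weeks.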

| Compound | R: persian speedwell, herbicidal effect grade |
| --- | --- |
| CCCC(=O)Oc1c(CC)nn(C)c(=O)c1-c1c(-c2ccc(OC(F)(F)F)cc2)sc2ccc(F)cc12 [2-413] | 5 (Herbicidal rate of 90% or more (almost completely withered)) |

tested on: late watergrass; experiment: Test Example 1: herbicidal activity, application before weed generation under submerged conditions (Table 16, symbol A); format: in vivo, late watergrass (Echinochloa oryzicola); conditions: amount of applied herbicide 320 g/ha
Method in brief: (§2)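 Submerged Wagner pots (alluvial soil, 4 cm water) sown with weed seeds and planted with 2.5-leaf rice seedlings; emulsifiable concentrate diluted in water applied to water surface on sowing day. Held in greenhouse at 25-30 °C; injury scored 0-5 by herbicidal rate after three weeks.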

| Compound | Herbicidal effect, A: late watergrass |
| --- | --- |
| CCCC(=O)Oc1c(CC)nn(C)c(=O)c1-c1c(-c2ccc(OC(F)(F)F)cc2)sc2ccc(F)cc12 [2-413] | 3 (Herbicidal rate of 40% or more and less than 70%) |

tested on: Japanese bulrush; experiment: Test Example 1: herbicidal activity, application before weed generation under submerged conditions (Table 16, symbol B); format: in vivo, Japanese bulrush (Schoenoplectus juncoides); conditions: amount of applied herbicide 320 g/ha
Method in brief: as §2

| Compound | Herbicidal effect, B: Japanese bulrush |
| --- | --- |
| CCCC(=O)Oc1c(CC)nn(C)c(=O)c1-c1c(-c2ccc(OC(F)(F)F)cc2)sc2ccc(F)cc12 [2-413] | 0 (Herbicidal rate of 5% or less (almost no effect)) |

tested on: oval-leafed pondweed; experiment: Test Example 2: herbicidal activity, application during weed generation under submerged conditions (Table 17, symbol C); format: in vivo, oval-leafed pondweed (Monochoria vaginalis); conditions: AAH 320 g/ha; application during weed generation, submerged conditions
Method in brief: (§3)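 Steps: fill Wagner pots with alluvial soil; add water to give 4 cm depth; sow the species mixed; grow under glass at 25–30° C.; at 1–2 leaves apply water-diluted emulsion formulation to the water surface at a fixed herbicide amount; score after 3 weeks.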

| Compound | herbicidal effect rating, C: oval-leafed pondweed |
| --- | --- |
| CCCC(=O)Oc1c(CC)nn(C)c(=O)c1-c1c(-c2ccc(OC(F)(F)F)cc2)sc2ccc(F)cc12 [2-413] | 0 (Herbicidal rate of 5% or less (almost no effect)) |

tested on: lambsquarters; experiment: Test Example 5: herbicidal effect by foliage application, plastic box (Table 20, symbol O); format: in vivo, lambsquarters (Chenopodium album); conditions: foliage application, 320 g/ha, three weeks after application
Method in brief: as §1

| Compound | O: lambsquarters, herbicidal effect grade |
| --- | --- |
| CCCC(=O)Oc1c(CC)nn(C)c(=O)c1-c1c(-c2ccc(OC(F)(F)F)cc2)sc2ccc(F)cc12 [2-413] | 4 (Herbicidal rate of 70% or more and less than 90%) |

tested on: wild oat; experiment: Test Example 5: herbicidal effect by foliage application, plastic box (Table 20, symbol I); format: in vivo, wild oat (Avena fatua); conditions: foliage application, 320 g/ha, three weeks after application
Method in brief: as §1

| Compound | I: wild oat, herbicidal effect grade |
| --- | --- |
| CCCC(=O)Oc1c(CC)nn(C)c(=O)c1-c1c(-c2ccc(OC(F)(F)F)cc2)sc2ccc(F)cc12 [2-413] | 0 (Herbicidal rate of 5% or less (almost no effect)) |

tested on: barnyard grass; experiment: Test Example 3: herbicidal effect by foliage application, Wagner pot (Table 18, symbol H); format: in vivo, barnyard grass (Echinochloa crus-galli); conditions: amount of applied herbicide 320 g/ha
Method in brief: (§4)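 Plants were sown in alluvial soil held under 0.1–0.5 cm standing water and grown 14 days in a greenhouse at 25–30 °C. An emulsifiable formulation, water-diluted to the set dose, was then sprayed onto the foliage, and effects were scored three weeks later using previously defined criteria.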

| Compound | herbicidal effect on H: barnyard grass |
| --- | --- |
| CCCC(=O)Oc1c(CC)nn(C)c(=O)c1-c1c(-c2ccc(OC(F)(F)F)cc2)sc2ccc(F)cc12 [2-413] | 5 (Herbicidal rate of 90% or more (almost completely withered)) |

tested on: Italian ryegrass; experiment: Test Example 5: herbicidal effect by foliage application, plastic box (Table 20, symbol K); format: in vivo, Italian ryegrass (Lolium multiflorum); conditions: foliage application, 320 g/ha, three weeks after application
Method in brief: as §1

| Compound | K: Italian ryegrass, herbicidal effect grade |
| --- | --- |
| CCCC(=O)Oc1c(CC)nn(C)c(=O)c1-c1c(-c2ccc(OC(F)(F)F)cc2)sc2ccc(F)cc12 [2-413] | 2 (Herbicidal rate of 20% or more and less than 40%) |

tested on: Chinese sprangletop; experiment: Test Example 3: herbicidal effect by foliage application, Wagner pot (Table 18, symbol D); format: in vivo, chinese sprangletop (Leptochloa chinensis); conditions: amount of applied herbicide 320 g/ha
Method in brief: as §4

| Compound | herbicidal effect on D: Chinese sprangletop |
| --- | --- |
| CCCC(=O)Oc1c(CC)nn(C)c(=O)c1-c1c(-c2ccc(OC(F)(F)F)cc2)sc2ccc(F)cc12 [2-413] | 4 (Herbicidal rate of 70% or more and less than 90%) |

tested on: barnyard grass; experiment: Test Example 5: herbicidal effect by foliage application, plastic box (Table 20, symbol H); format: in vivo, barnyard grass (Echinochloa crus-galli); conditions: foliage application, 320 g/ha, three weeks after application
Method in brief: as §1

| Compound | H: barnyard grass, herbicidal effect grade |
| --- | --- |
| CCCC(=O)Oc1c(CC)nn(C)c(=O)c1-c1c(-c2ccc(OC(F)(F)F)cc2)sc2ccc(F)cc12 [2-413] | 1 (Herbicidal rate of 5% or more and less than 20%) |

tested on: Japanese bulrush; experiment: Test Example 2: herbicidal activity, application during weed generation under submerged conditions (Table 17, symbol B); format: in vivo, Japanese bulrush (Schoenoplectus juncoides); conditions: AAH 320 g/ha; application during weed generation, submerged conditions
Method in brief: as §3

| Compound | herbicidal effect rating, B: Japanese bulrush |
| --- | --- |
| CCCC(=O)Oc1c(CC)nn(C)c(=O)c1-c1c(-c2ccc(OC(F)(F)F)cc2)sc2ccc(F)cc12 [2-413] | 1 (Herbicidal rate of 5% or more and less than 20%) |

tested on: rice flat sedge; experiment: Test Example 3: herbicidal effect by foliage application, Wagner pot (Table 18, symbol E); format: in vivo, rice flat sedge (Cyperus iria); conditions: amount of applied herbicide 320 g/ha
Method in brief: as §4

| Compound | herbicidal effect on E: rice flat sedge |
| --- | --- |
| CCCC(=O)Oc1c(CC)nn(C)c(=O)c1-c1c(-c2ccc(OC(F)(F)F)cc2)sc2ccc(F)cc12 [2-413] | 4 (Herbicidal rate of 70% or more and less than 90%) |

tested on: oval-leafed pondweed; experiment: Test Example 1: herbicidal activity, application before weed generation under submerged conditions (Table 16, symbol C); format: in vivo, oval-leafed pondweed (Monochoria vaginalis); conditions: amount of applied herbicide 320 g/ha
Method in brief: as §2

| Compound | Herbicidal effect, C: oval-leafed pondweed |
| --- | --- |
| CCCC(=O)Oc1c(CC)nn(C)c(=O)c1-c1c(-c2ccc(OC(F)(F)F)cc2)sc2ccc(F)cc12 [2-413] | 0 (Herbicidal rate of 5% or less (almost no effect)) |

tested on: southern crabgrass; experiment: Test Example 5: herbicidal effect by foliage application, plastic box (Table 20, symbol F); format: in vivo, southern crabgrass (Digitaria ciliaris); conditions: foliage application, 320 g/ha, three weeks after application
Method in brief: as §1

| Compound | F: southern crabgrass, herbicidal effect grade |
| --- | --- |
| CCCC(=O)Oc1c(CC)nn(C)c(=O)c1-c1c(-c2ccc(OC(F)(F)F)cc2)sc2ccc(F)cc12 [2-413] | 0 (Herbicidal rate of 5% or less (almost no effect)) |

tested on: velvetleaf; experiment: Test Example 5: herbicidal effect by foliage application, plastic box (Table 20, symbol M); format: in vivo, velvetleaf (Abutilon theophrasti); conditions: foliage application, 320 g/ha, three weeks after application
Method in brief: as §1

| Compound | M: velvetleaf, herbicidal effect grade |
| --- | --- |
| CCCC(=O)Oc1c(CC)nn(C)c(=O)c1-c1c(-c2ccc(OC(F)(F)F)cc2)sc2ccc(F)cc12 [2-413] | 4 (Herbicidal rate of 70% or more and less than 90%) |

tested on: blackgrass; experiment: Test Example 5: herbicidal effect by foliage application, plastic box (Table 20, symbol J); format: in vivo, blackgrass (Alopecurus myosuroides); conditions: foliage application, 320 g/ha, three weeks after application
Method in brief: as §1

| Compound | J: blackgrass, herbicidal effect grade |
| --- | --- |
| CCCC(=O)Oc1c(CC)nn(C)c(=O)c1-c1c(-c2ccc(OC(F)(F)F)cc2)sc2ccc(F)cc12 [2-413] | 0 (Herbicidal rate of 5% or less (almost no effect)) |

tested on: green foxtail; experiment: Test Example 5: herbicidal effect by foliage application, plastic box (Table 20, symbol G); format: in vivo, green foxtail (Setaria viridis); conditions: foliage application, 320 g/ha, three weeks after application
Method in brief: as §1

| Compound | G: green foxtail, herbicidal effect grade |
| --- | --- |
| CCCC(=O)Oc1c(CC)nn(C)c(=O)c1-c1c(-c2ccc(OC(F)(F)F)cc2)sc2ccc(F)cc12 [2-413] | 3 (Herbicidal rate of 40% or more and less than 70%) |

tested on: redroot pigweed; experiment: Test Example 5: herbicidal effect by foliage application, plastic box (Table 20, symbol N); format: in vivo, redroot pigweed (Amaranthus retroflexus); conditions: foliage application, 320 g/ha, three weeks after application
Method in brief: as §1

| Compound | N: redroot pigweed, herbicidal effect grade |
| --- | --- |
| CCCC(=O)Oc1c(CC)nn(C)c(=O)c1-c1c(-c2ccc(OC(F)(F)F)cc2)sc2ccc(F)cc12 [2-413] | 4 (Herbicidal rate of 70% or more and less than 90%) |

tested on: chickweed; experiment: Test Example 5: herbicidal effect by foliage application, plastic box (Table 20, symbol P); format: in vivo, common chickweed (Stellaria media); conditions: foliage application, 320 g/ha, three weeks after application
Method in brief: as §1

| Compound | P: chickweed, herbicidal effect grade |
| --- | --- |
| CCCC(=O)Oc1c(CC)nn(C)c(=O)c1-c1c(-c2ccc(OC(F)(F)F)cc2)sc2ccc(F)cc12 [2-413] | 5 (Herbicidal rate of 90% or more (almost completely withered)) |

tested on: late watergrass; experiment: Test Example 2: herbicidal activity, application during weed generation under submerged conditions (Table 17, symbol A); format: in vivo, late watergrass (Echinochloa oryzicola); conditions: AAH 320 g/ha; application during weed generation, submerged conditions
Method in brief: as §3

| Compound | herbicidal effect rating, A: late watergrass |
| --- | --- |
| CCCC(=O)Oc1c(CC)nn(C)c(=O)c1-c1c(-c2ccc(OC(F)(F)F)cc2)sc2ccc(F)cc12 [2-413] | 3 (Herbicidal rate of 40% or more and less than 70%) |

tested on: windgrass; experiment: Test Example 5: herbicidal effect by foliage application, plastic box (Table 20, symbol L); format: in vivo, windgrass (Apera spica-venti); conditions: foliage application, 320 g/ha, three weeks after application
Method in brief: as §1

| Compound | L: windgrass, herbicidal effect grade |
| --- | --- |
| CCCC(=O)Oc1c(CC)nn(C)c(=O)c1-c1c(-c2ccc(OC(F)(F)F)cc2)sc2ccc(F)cc12 [2-413] | 0 (Herbicidal rate of 5% or less (almost no effect)) |
